Experimental data as given in PubChem BioAssay (NCI).
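Tested at 5 concentrations; 48 h exposure; 96-well plates; endpoints linearly interpolated, else capped at highest concentration. GI50 is the concentration that inhibits growth by half. At the TGI there is no net growth.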

Assays:
Test in all cases: NCI-60 cell line screen, 48 h
786-0 renal = system: 786-0 renal
A498 renal = system: A498 renal
A549 NSCLC = system: A549 NSCLC
ACHN renal = system: ACHN renal
BT-549 breast = system: BT-549 breast
CAKI-1 renal = system: CAKI-1 renal
CCRF-CEM leukemia = system: CCRF-CEM leukemia
COLO 205 colon = system: COLO 205 colon
DU-145 prostate = system: DU-145 prostate
EKVX NSCLC = system: EKVX NSCLC
HCC-2998 colon = system: HCC-2998 colon
HCT-116 colon = system: HCT-116 colon
HCT-15 colon = system: HCT-15 colon
HL-60(TB) leukemia = system: HL-60(TB) leukemia
HOP-62 NSCLC = system: HOP-62 NSCLC
HOP-92 NSCLC = system: HOP-92 NSCLC
HS 578T breast = system: HS 578T breast
HT29 colon = system: HT29 colon
IGROV1 ovarian = system: IGROV1 ovarian
K-562 leukemia = system: K-562 leukemia
KM12 colon = system: KM12 colon
LOX IMVI melanoma = system: LOX IMVI melanoma
M14 melanoma = system: M14 melanoma
MALME-3M melanoma = system: MALME-3M melanoma
MCF7 breast = system: MCF7 breast
MDA-MB-231 breast = system: MDA-MB-231 breast
MDA-MB-435 = system: MDA-MB-435
MOLT-4 leukemia = system: MOLT-4 leukemia
NCI-H226 lung = system: NCI-H226 lung
NCI-H23 lung = system: NCI-H23 lung
NCI-H460 lung = system: NCI-H460 lung
NCI-H522 lung = system: NCI-H522 lung
NCI/ADR-RES ovarian = system: NCI/ADR-RES ovarian
OVCAR-3 ovarian = system: OVCAR-3 ovarian
OVCAR-4 ovarian = system: OVCAR-4 ovarian
OVCAR-5 ovarian = system: OVCAR-5 ovarian
OVCAR-8 ovarian = system: OVCAR-8 ovarian
PC-3 prostate = system: PC-3 prostate
RPMI-8226 leukemia = system: RPMI-8226 leukemia
RXF 393 renal = system: RXF 393 renal
SF-268 CNS = system: SF-268 CNS
SF-295 CNS = system: SF-295 CNS
SF-539 CNS = system: SF-539 CNS
SK-MEL-2 melanoma = system: SK-MEL-2 melanoma
SK-MEL-28 melanoma = system: SK-MEL-28 melanoma
SK-MEL-5 melanoma = system: SK-MEL-5 melanoma
SK-OV-3 ovarian = system: SK-OV-3 ovarian
SN12C renal = system: SN12C renal
SNB-19 CNS = system: SNB-19 CNS
SNB-75 CNS = system: SNB-75 CNS
SR leukemia = system: SR leukemia
SW-620 colon = system: SW-620 colon
T-47D breast = system: T-47D breast
TK-10 renal = system: TK-10 renal
U251 CNS = system: U251 CNS
UACC-257 melanoma = system: UACC-257 melanoma
UACC-62 melanoma = system: UACC-62 melanoma
UO-31 renal = system: UO-31 renal

Nc1ncc(-c2ccc3ncnc(N4CCc5ccc(Cl)cc54)c3c2)cc1C(F)(F)F
GI50 (786-0 renal): 1.6 µM
TGI (786-0 renal): 12 µM
GI50 (A498 renal): 0.301 µM
TGI (A498 renal): 2.52 µM
GI50 (A549 NSCLC): 1.29 µM
TGI (A549 NSCLC): 14 µM
GI50 (ACHN renal): 0.569 µM
TGI (ACHN renal): 13.2 µM
GI50 (BT-549 breast): 1.82 µM
TGI (BT-549 breast): 17.2 µM
GI50 (CAKI-1 renal): 0.457 µM
TGI (CAKI-1 renal): 5.56 µM
GI50 (CCRF-CEM leukemia): 3.87 µM
TGI (CCRF-CEM leukemia): > 100 µM
GI50 (COLO 205 colon): 3.68 µM
TGI (COLO 205 colon): 30.5 µM
GI50 (DU-145 prostate): 1.43 µM
TGI (DU-145 prostate): 18.2 µM
GI50 (EKVX NSCLC): 0.507 µM
TGI (EKVX NSCLC): 18.7 µM
GI50 (HCC-2998 colon): 3.43 µM
TGI (HCC-2998 colon): > 100 µM
GI50 (HCT-116 colon): 2.53 µM
TGI (HCT-116 colon): 16.6 µM
GI50 (HCT-15 colon): 1.3 µM
TGI (HCT-15 colon): 22.6 µM
GI50 (HL-60(TB) leukemia): 0.723 µM
TGI (HL-60(TB) leukemia): > 100 µM
GI50 (HOP-62 NSCLC): 1.74 µM
TGI (HOP-62 NSCLC): 13.2 µM
GI50 (HOP-92 NSCLC): 0.137 µM
TGI (HOP-92 NSCLC): 6.41 µM
GI50 (HS 578T breast): 0.326 µM
TGI (HS 578T breast): 3.05 µM
GI50 (HT29 colon): 1.83 µM
TGI (HT29 colon): 16.2 µM
GI50 (IGROV1 ovarian): 0.188 µM
TGI (IGROV1 ovarian): 0.964 µM
GI50 (K-562 leukemia): 3.98 µM
TGI (K-562 leukemia): > 100 µM
GI50 (KM12 colon): 2.48 µM
TGI (KM12 colon): 48.3 µM
GI50 (LOX IMVI melanoma): 0.734 µM
TGI (LOX IMVI melanoma): 11.9 µM
GI50 (M14 melanoma): 4.63 µM
TGI (M14 melanoma): 26 µM
GI50 (MALME-3M melanoma): 0.919 µM
TGI (MALME-3M melanoma): 6.22 µM
GI50 (MCF7 breast): 0.375 µM
TGI (MCF7 breast): 14.9 µM
GI50 (MDA-MB-231 breast): 1.29 µM
TGI (MDA-MB-231 breast): 12.4 µM
GI50 (MDA-MB-435): 1.68 µM
TGI (MDA-MB-435): 13.5 µM
GI50 (MOLT-4 leukemia): 1.63 µM
TGI (MOLT-4 leukemia): > 100 µM
GI50 (NCI-H226 lung): 3.04 µM
TGI (NCI-H226 lung): 24.1 µM
GI50 (NCI-H23 lung): 3.79 µM
TGI (NCI-H23 lung): 29.4 µM
GI50 (NCI-H460 lung): 1.02 µM
TGI (NCI-H460 lung): 13.7 µM
GI50 (NCI-H522 lung): 1.76 µM
TGI (NCI-H522 lung): 17.9 µM
GI50 (NCI/ADR-RES ovarian): 2.26 µM
TGI (NCI/ADR-RES ovarian): 91.1 µM
GI50 (OVCAR-3 ovarian): 1.05 µM
TGI (OVCAR-3 ovarian): 15.1 µM
GI50 (OVCAR-4 ovarian): 1.07 µM
TGI (OVCAR-4 ovarian): 3.23 µM
GI50 (OVCAR-5 ovarian): 0.916 µM
TGI (OVCAR-5 ovarian): 14.4 µM
GI50 (OVCAR-8 ovarian): 2.15 µM
TGI (OVCAR-8 ovarian): 22.6 µM
GI50 (PC-3 prostate): 0.84 µM
TGI (PC-3 prostate): 16 µM
GI50 (RPMI-8226 leukemia): 2.82 µM
TGI (RPMI-8226 leukemia): > 100 µM
GI50 (RXF 393 renal): 0.181 µM
TGI (RXF 393 renal): 0.864 µM
GI50 (SF-268 CNS): 1.13 µM
TGI (SF-268 CNS): 24.7 µM
GI50 (SF-295 CNS): 1.4 µM
TGI (SF-295 CNS): 16.5 µM
GI50 (SF-539 CNS): 1.61 µM
TGI (SF-539 CNS): 10.4 µM
GI50 (SK-MEL-2 melanoma): 5.12 µM
TGI (SK-MEL-2 melanoma): 23.5 µM
GI50 (SK-MEL-28 melanoma): 2.01 µM
TGI (SK-MEL-28 melanoma): 13.9 µM
GI50 (SK-MEL-5 melanoma): 5.08 µM
TGI (SK-MEL-5 melanoma): 28.8 µM
GI50 (SK-OV-3 ovarian): 1.3 µM
TGI (SK-OV-3 ovarian): 7.04 µM
GI50 (SN12C renal): 0.465 µM
TGI (SN12C renal): 15.9 µM
GI50 (SNB-19 CNS): 2.63 µM
TGI (SNB-19 CNS): 23.7 µM
GI50 (SNB-75 CNS): 0.113 µM
TGI (SNB-75 CNS): 1.64 µM
GI50 (SR leukemia): 2.55 µM
TGI (SR leukemia): > 100 µM
GI50 (SW-620 colon): 3.55 µM
TGI (SW-620 colon): 37.3 µM
GI50 (T-47D breast): 0.557 µM
TGI (T-47D breast): 10.9 µM
GI50 (TK-10 renal): 1.36 µM
TGI (TK-10 renal): 11 µM
GI50 (U251 CNS): 2.65 µM
TGI (U251 CNS): 16.6 µM
GI50 (UACC-257 melanoma): 2.86 µM
TGI (UACC-257 melanoma): 20.9 µM
GI50 (UACC-62 melanoma): 0.965 µM
TGI (UACC-62 melanoma): 11.1 µM
GI50 (UO-31 renal): 0.254 µM
TGI (UO-31 renal): 4.62 µM
